Laboratory results published in publication PMC4448982, “LP-925219 maximizes urinary glucose excretion in mice by inhibiting both renal SGLT1 and SGLT2” (Pharmacology Research & Perspectives, 2015).

Legend:
Assay type in all cases: cell-based
Conditions in all cases: mean ± SD
rat SGLT2 = biological target: T1, rat SGLT2 (Rattus norvegicus, UniProt P53792); experiment: 14C-AMG uptake assay, cells expressing rat SGLT2
T1 construct: expressed in transfected cells; host or cells: HEK293 (per abstract)
T1 sequence (P53792 1-670): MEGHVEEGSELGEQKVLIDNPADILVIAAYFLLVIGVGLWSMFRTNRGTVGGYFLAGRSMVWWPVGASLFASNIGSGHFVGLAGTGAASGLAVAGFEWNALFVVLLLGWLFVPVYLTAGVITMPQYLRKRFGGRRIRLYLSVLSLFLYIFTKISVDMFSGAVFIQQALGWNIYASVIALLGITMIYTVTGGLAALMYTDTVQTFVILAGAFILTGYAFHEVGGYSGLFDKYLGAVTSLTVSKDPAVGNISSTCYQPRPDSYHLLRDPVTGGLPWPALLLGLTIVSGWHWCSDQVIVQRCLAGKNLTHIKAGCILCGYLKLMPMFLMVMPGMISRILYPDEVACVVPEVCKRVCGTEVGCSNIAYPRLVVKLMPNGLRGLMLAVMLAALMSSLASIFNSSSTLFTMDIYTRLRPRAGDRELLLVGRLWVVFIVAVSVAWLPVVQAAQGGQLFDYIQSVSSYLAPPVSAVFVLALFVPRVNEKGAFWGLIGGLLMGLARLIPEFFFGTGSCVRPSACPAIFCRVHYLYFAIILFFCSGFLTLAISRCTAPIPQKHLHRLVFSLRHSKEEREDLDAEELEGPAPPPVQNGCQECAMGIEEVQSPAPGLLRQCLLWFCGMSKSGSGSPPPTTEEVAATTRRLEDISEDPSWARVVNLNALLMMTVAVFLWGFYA
From the text: (§1) Methods for generating cell lines expressing mouse, rat, and dog SGLT1 and SGLT2 are published (Powell et al. [2013b], [2014]). Full-length coding sequence of human SGLT1 (NP_000334) and human SGLT2 (NP_003032.1) with an HA-tag at the N-terminus were cloned into the mammalian expression vector pIRESpuro2 (Clontech, Mountain View, CA). HEK293 cells (ATCC, Manassas, VA) were transfected with the pIRESpuro2 vector containing human SGLT1 or SGLT2 and bulk stable cell lines were selected in the presence of 0.5 μg/mL of puromycin.
(§2) Cell lines expressing SGLT1 or SGLT2 were plated into poly-D-lysine-coated 384-well plates, and culture overnight in cell growth medium. Cells were washed, and then incubated in uptake buffer ([…], […] KCl, […] CaCl2, […] MgCl2, […] HEPES/Tris, 1 mg/mL of bovine serum albumin, pH7.4) containing [^14C]α-methylglucopyranoside (^14C-AMG), a nonmetabolizable glucose analog specific for sodium-dependent glucose transporters (Wright and Turk [2004]). The inhibition of SGLT1 or SGLT2 was determined by measuring SGLT1/2-mediated ^14C-AMG uptake in the presence of increasing compound concentrations of LP-925219. […] Standard sigmoidal dose–response model curves were fitted, and the IC50 value was computed as the LP-925219 concentration that inhibited the ^14C-AMG uptake by 50% between baseline and maximum uptake.

rat SGLT1 = biological target: T2, rat SGLT1 (Rattus norvegicus, UniProt P53790); experiment: 14C-AMG uptake assay, cells expressing rat SGLT1
T2 construct: expressed in transfected cells; host or cells: HEK293 (per abstract)
T2 sequence (P53790 1-665): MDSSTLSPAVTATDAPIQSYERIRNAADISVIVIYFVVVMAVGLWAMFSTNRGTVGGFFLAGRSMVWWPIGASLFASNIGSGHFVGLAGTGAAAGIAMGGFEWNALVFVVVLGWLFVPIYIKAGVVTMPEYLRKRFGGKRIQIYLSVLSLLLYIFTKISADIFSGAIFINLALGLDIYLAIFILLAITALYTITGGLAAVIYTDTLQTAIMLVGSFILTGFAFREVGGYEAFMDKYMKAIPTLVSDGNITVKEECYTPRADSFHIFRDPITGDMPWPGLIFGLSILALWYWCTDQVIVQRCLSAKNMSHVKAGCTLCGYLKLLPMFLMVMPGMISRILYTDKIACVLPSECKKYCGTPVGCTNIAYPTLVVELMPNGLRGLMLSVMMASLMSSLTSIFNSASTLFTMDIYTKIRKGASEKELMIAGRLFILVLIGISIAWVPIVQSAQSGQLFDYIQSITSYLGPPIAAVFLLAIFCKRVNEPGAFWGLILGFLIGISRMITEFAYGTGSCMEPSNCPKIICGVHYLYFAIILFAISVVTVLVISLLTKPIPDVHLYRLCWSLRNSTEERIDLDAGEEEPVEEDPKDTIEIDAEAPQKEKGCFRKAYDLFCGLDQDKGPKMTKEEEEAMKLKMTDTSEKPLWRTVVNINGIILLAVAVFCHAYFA
From the text: as §1, §2

human SGLT1 = biological target: T3, human SGLT1 (Homo sapiens, UniProt P13866); experiment: 14C-AMG uptake assay, HEK293 cells expressing human SGLT1; design: expressed in transfected cells
T3 sequence (P13866 1-664): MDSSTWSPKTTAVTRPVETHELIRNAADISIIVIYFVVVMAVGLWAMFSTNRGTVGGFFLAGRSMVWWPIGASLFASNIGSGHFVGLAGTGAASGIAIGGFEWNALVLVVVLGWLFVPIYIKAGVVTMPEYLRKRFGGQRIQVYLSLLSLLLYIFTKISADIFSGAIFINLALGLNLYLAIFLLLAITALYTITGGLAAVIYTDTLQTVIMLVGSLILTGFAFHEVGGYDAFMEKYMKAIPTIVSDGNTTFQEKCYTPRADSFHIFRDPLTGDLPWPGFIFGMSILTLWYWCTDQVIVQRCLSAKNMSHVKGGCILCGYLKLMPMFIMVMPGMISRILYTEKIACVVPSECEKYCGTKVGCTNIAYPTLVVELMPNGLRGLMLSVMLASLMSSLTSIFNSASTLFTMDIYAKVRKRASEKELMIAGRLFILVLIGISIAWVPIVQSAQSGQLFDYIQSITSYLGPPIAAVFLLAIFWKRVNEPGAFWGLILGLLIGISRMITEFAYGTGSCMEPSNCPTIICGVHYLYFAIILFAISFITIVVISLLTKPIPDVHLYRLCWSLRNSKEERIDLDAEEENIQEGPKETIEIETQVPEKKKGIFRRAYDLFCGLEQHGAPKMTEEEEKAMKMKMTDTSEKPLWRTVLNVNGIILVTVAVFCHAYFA
From the text: as §1, §2

## COc1ccc(Cc2cc([C@@H]3O[C@H](SC)[C@@H](O)[C@H](O)[C@H]3O)ccc2Cl)cc1 [LP-925219]
Rat SGLT2
  IC50: 0.3 ± 0.2 nM
Rat SGLT1
  IC50: 36.7 ± 7.2 nM
Human SGLT1
  IC50: 15.9 ± 4.2 nM
